# Source: patent US4401660A, “Ester derivatives of 5-O-mycaminosyl tylonolide and method of using same” (Eli Lilly and Company, priority 1981, dated 1983)
# What was measured:
# [1] = tested on: Haemophilus influenzae Holt; experiment: MIC, standard agar-dilution assay (Table II); type: cell-based; design: unit not given here; conditions: ampicillin-sensitive strain
# Description: (§1) The MIC's in Table II were determined by standard agar-dilution assays. The MIC's in Table III were obtained using a conventional broth-dilution microtiter test.
# [2] = tested on: Haemophilus influenzae R252; experiment: MIC, standard agar-dilution assay (Table II); type: cell-based; design: unit not given here; conditions: Haemophilus influenzae R252, ampicillin-resistant strain
# Description: as §1
# [3] = tested on: Staphylococcus aureus S13E; experiment: MIC, standard agar-dilution assay (Table II); type: cell-based; design: unit not given here
# Description: as §1
# [4] = tested on: Staphylococcus aureus V41; experiment: MIC, standard agar-dilution assay (Table II); type: cell-based; design: unit not given here; conditions: Staphylococcus aureus V41, penicillin-resistant strain
# Description: as §1
# [5] = tested on: Staphylococcus aureus X1.1; experiment: MIC, standard agar-dilution assay (Table II); type: cell-based; design: unit not given here
# Description: as §1
# [6] = tested on: Staphylococcus aureus X400; experiment: MIC, standard agar-dilution assay (Table II); type: cell-based; design: unit not given here; conditions: Staphylococcus aureus X400, methicillin-resistant strain
# Description: as §1
# [7] = tested on: Staphylococcus epidermidis EPI1; experiment: MIC, standard agar-dilution assay (Table II); type: cell-based; design: unit not given here
# Description: as §1
# [8] = tested on: Staphylococcus epidermidis EPI2; experiment: MIC, standard agar-dilution assay (Table II); type: cell-based; design: unit not given here
# Description: as §1
# [9] = tested on: Streptococcus Group D 9960; experiment: MIC, standard agar-dilution assay (Table II); type: cell-based; design: unit not given here
# Description: as §1
# [10] = tested on: Streptococcus Group D X66; experiment: MIC, standard agar-dilution assay (Table II); type: cell-based; design: unit not given here
# Description: as §1
# [11] = tested on: Streptococcus pneumoniae Park I; experiment: MIC, standard agar-dilution assay (Table II); type: cell-based; design: unit not given here
# Description: as §1
# [12] = tested on: Streptococcus pyogenes C203; experiment: MIC, standard agar-dilution assay (Table II); type: cell-based; design: unit not given here
# Description: as §1
# Mycoplasma gallisepticum = experiment: MIC, broth-dilution microtiter test (Table III); type: cell-based; design: unit not given here
# Description: as §1
# Mycoplasma hyorhinis = experiment: MIC, broth-dilution microtiter test (Table III); type: cell-based; design: unit not given here
# Description: as §1
# Mycoplasma synoviae = experiment: MIC, broth-dilution microtiter test (Table III); type: cell-based; design: unit not given here
# Description: as §1
# [13] = tested on: Pasteurella haemolytica 22C; experiment: MIC, broth-dilution microtiter test (Table III); type: cell-based; design: unit not given here
# Description: as §1
# [14] = tested on: Pasteurella haemolytica 23C; experiment: MIC, broth-dilution microtiter test (Table III); type: cell-based; design: unit not given here
# Description: as §1
# [15] = tested on: Pasteurella haemolytica 41D; experiment: MIC, broth-dilution microtiter test (Table III); type: cell-based; design: unit not given here
# Description: as §1
# [16] = tested on: Pasteurella multocida 17E; experiment: MIC, broth-dilution microtiter test (Table III); type: cell-based; design: unit not given here; conditions: bovine isolate
# Description: as §1
# [17] = tested on: Pasteurella multocida 22A; experiment: MIC, broth-dilution microtiter test (Table III); type: cell-based; design: unit not given here
# Description: as §1
# [18] = tested on: Pasteurella multocida 40G; experiment: MIC, broth-dilution microtiter test (Table III); type: cell-based; design: unit not given here
# Description: as §1
# [19] = tested on: Pasteurella multocida 60A; experiment: MIC, broth-dilution microtiter test (Table III); type: cell-based; design: unit not given here; conditions: avian isolate
# Description: as §1
# [20] = tested on: Pasteurella multocida 68C; experiment: MIC, broth-dilution microtiter test (Table III); type: cell-based; design: unit not given here
# Description: as §1
# Staphylococcus aureus = experiment: MIC, broth-dilution microtiter test (Table III); type: cell-based; design: unit not given here
# Description: as §1
# Streptococcus sp. 80 = experiment: MIC, broth-dilution microtiter test (Table III); type: cell-based; design: unit not given here
# Description: as §1
# Pasteurella multocida = experiment: Treatment of Pasteurella infections in chicks (Table V); type: in vivo, one-day-old chicks; conditions: 30 mg/kg by subcutaneous injection one and four hours post challenge; for mortality at 30 mg/kg: Pasteurella multocida, sc, 4 h, read-out: Deaths in Treated Chicks/Number Treated (converted)
# Method in brief: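 One-day-old chicks challenged subcutaneously with avian P. multocida (0.1 ml of 10^-3 dilution of 20-hour tryptose broth culture). Esters given at 30 mg/kg subcutaneously at 1 and 4 hours post challenge. Untreated infected controls, ten per group.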
SMILES,minimal inhibitory concentration (MIC) [1],minimal inhibitory concentration (MIC) [2],minimal inhibitory concentration (MIC) [3],minimal inhibitory concentration (MIC) [4],minimal inhibitory concentration (MIC) [5],minimal inhibitory concentration (MIC) [6],minimal inhibitory concentration (MIC) [7],minimal inhibitory concentration (MIC) [8],minimal inhibitory concentration (MIC) [9],minimal inhibitory concentration (MIC) [10],minimal inhibitory concentration (MIC) [11],minimal inhibitory concentration (MIC) [12],minimal inhibitory concentration (MIC) (Mycoplasma gallisepticum),minimal inhibitory concentration (MIC) (Mycoplasma hyorhinis),minimal inhibitory concentration (MIC) [13],minimal inhibitory concentration (MIC) [14],minimal inhibitory concentration (MIC) [15],minimal inhibitory concentration (MIC) [16],minimal inhibitory concentration (MIC) [17],minimal inhibitory concentration (MIC) [18],other results
CCC1OC(=O)CC(O)C(C)C(OC2OC(C)C(O)C(N(C)C)C2OC(C)=O)C(CC=O)CC(C)C(=O)C=CC(C)=CC1COC(=O)OC (stereo not shown) [Compound 73],1,2,0.25,0.25,0.25,0.25,0.25,0.25,0.25,0.25,0.03,0.25,0.097,0.39,6.25,6.25,3.12,6.25,> 50,6.25,minimal inhibitory concentration (MIC) (Mycoplasma synoviae): 0.097; minimal inhibitory concentration (MIC) [19]: 6.25; minimal inhibitory concentration (MIC) [20]: 3.12; minimal inhibitory concentration (MIC) (Staphylococcus aureus): 0.78; minimal inhibitory concentration (MIC) (Streptococcus sp. 80): 0.39; mortality at 30 mg/kg (Pasteurella multocida): 0%
CCC1OC(=O)CC(O)C(C)C(OC2OC(C)C(O)C(N(C)C)C2OC(C)=O)C(CC=O)CC(C)C(=O)C=CC(C)=CC1COC(=O)CCCC(=O)OC (stereo not shown) [Compound 71],2,2,0.25,0.25,0.25,0.25,0.25,0.25,0.5,0.25,0.03,0.25,0.195,12.5,50,12.5,12.5,6.25,3.12,3.12,minimal inhibitory concentration (MIC) (Mycoplasma synoviae): 0.78; minimal inhibitory concentration (MIC) [19]: 6.25; minimal inhibitory concentration (MIC) [20]: 6.25; minimal inhibitory concentration (MIC) (Staphylococcus aureus): 0.78; minimal inhibitory concentration (MIC) (Streptococcus sp. 80): 1.56; mortality at 30 mg/kg (Pasteurella multocida): 60%
"CCC1OC(=O)CC(O)C(C)C(OC2OC(C)C(OC(C)=O)C(N(C)C)C2OC(C)=O)C(CC=O)CC(C)C(=O)C=CC(C)=CC1COC(=O)[C@H](NC(=O)OC(C)(C)C)c1ccccc1 (stereo partly shown) [Compound 39, 2',4'-Di-O-acetyl-23-O-(N-t-BOC-phenylglycyl)-OMT]",2,2,0.5,1,0.5,1,0.5,1,0.5,0.5,0.03,0.125,< 0.05,1.56,12.5,12.5,12.5,6.25,25,6.25,minimal inhibitory concentration (MIC) [19]: 12.5; minimal inhibitory concentration (MIC) [20]: 12.5; minimal inhibitory concentration (MIC) (Staphylococcus aureus): 1.56; minimal inhibitory concentration (MIC) (Streptococcus sp. 80): 0.195; mortality at 30 mg/kg (Pasteurella multocida): 100%
CCC1OC(=O)CC(O)C(C)C(OC2OC(C)C(O)C(N(C)C)C2OC(C)=O)C(CC=O)CC(C)C(=O)C=CC(C)=CC1COC(=O)CCc1ccccc1 (stereo not shown) [Compound 30],0.5,0.5,0.25,0.25,0.125,0.25,0.25,0.25,0.125,0.125,0.015,0.06,< 0.05,0.195,3.12,3.12,3.12,1.56,1.56,0.78,minimal inhibitory concentration (MIC) [19]: 1.56; minimal inhibitory concentration (MIC) [20]: 0.78; minimal inhibitory concentration (MIC) (Staphylococcus aureus): 0.195; minimal inhibitory concentration (MIC) (Streptococcus sp. 80): < 0.05; Deaths in Treated Chicks/Number Treated (Pasteurella multocida): 6/10
CCC1OC(=O)CC(O)C(C)C(OC2OC(C)C(O)C(N(C)C)C2O)C(CC=O)CC(C)C(=O)C=CC(C)=CC1COC(=O)CCc1ccccc1 (stereo not shown) [Compound 54],0.25,0.25,0.125,0.25,0.125,0.25,0.125,0.25,0.125,0.125,0.015,0.06,0.097,0.78,3.12,3.12,3.12,0.78,6.25,3.12,minimal inhibitory concentration (MIC) [19]: 1.56; minimal inhibitory concentration (MIC) [20]: 0.78; minimal inhibitory concentration (MIC) (Staphylococcus aureus): 0.195; minimal inhibitory concentration (MIC) (Streptococcus sp. 80): 0.195; Deaths in Treated Chicks/Number Treated (Pasteurella multocida): 0/10
